Experimental data taken from patent US20140230091A1, “MODIFIED PLANTS WITH INCREASED OIL CONTENT” (BROOKHAVEN SCIENCE ASSOCIATES, LLC, priority 2011, published 2014).

Legend:
[1] = tested on: fatty acid synthesis in B. napus cells; experiment: 14C-acetate / 14C-malonate labeling of lipids (feedback inhibition of fatty acid synthesis); type: cell-based, Brassica napus
Procedure: All radioisotopes were obtained from American Radiolabeled Chemicals (St. Louis, Mo. USA). Labeling was conducted on cells 5 days after subculturing with a culture density of ˜20 mg FW mL^−1 and that had medium refreshed 16 h prior. For labeling, three 1 mL aliquots of cells were carefully removed from each flask and were labeled with either 0.2 μCi of 1,2-^14C-acetate (50-60 mCi mmol^−1) or 2-^14C-malonate (40-60 mCi mmol^−1) for 15 minutes at 25° C. with occasional shaking. Haloxyfop (Sigma) was dissolved in DMSO and added 30 min prior to labeling. Lipids were extracted and separated by TLC as described above. Radioactivity was detected by phosphorimaging and was quantified using ImageQuant software (GE Healthcare, Piscataway, N.J., USA). Incorporation of label into individual fatty acids was determined by making FAMEs as described above, separating the methyl esters by TLC as described in (Koo, Fulda, Browse and Ohlrogge 2005, Plant J, 44, 620-632) and measuring radioactivity by phosphorimaging.
Feedback inhibition of fatty acid synthesis was measured by the addition of a ^14C-acetate tracer. […] Sterol synthesis is dependent on acetyl-CoA and ATP, both of which are required for fatty acid synthesis. Therefore, if fatty acid synthesis is inhibited due to substrate limitation; so should be sterol biosynthesis. ^14C-acetate incorporation into sterols was unaffected by Tween-80 feeding, while incorporation into free fatty acids mirrored that of total lipids (FIG. 5), showing that the effect is restricted to fatty acid synthesis. […] Three hour time points were used for the remainder of this study to separate the period of maximum feedback inhibition from any lipid homeostatic mechanisms arising from the gross fatty acid compositional changes caused by long term Tween-80 feeding.
Plants contain plastidic and cytosolic ACCase and F AS enzyme systems, both of which are capable of incorporating ^14C-acetate into fatty acids. Comparing the distribution of label in individual fatty acid species can therefore provide information on the relative contribution of these pathways. […] The degree to which ^14C-acetate incorporation is inhibited by haloxyfop is proportional to cytosolic elongation activity, whereas haloxyfop-resistant incorporation is from the de nova pathway inside the plastid.
To separate these possibilities, we exploited the fact that exogenous malonate can be converted to malonyl-CoA and used by FAS, bypassing the ACCase reaction (Kannangara et al. 1973, Plant Physiol, 52, 156-161). If ACCase is the only point of inhibition then the rate of ^14C-malonate labeling of de novo fatty acids should be the same in cultures with or without Tween-80. […] Therefore ACCase, and not F AS, is inhibited by Tween-80 feeding. When combined, the data from FIG. 6 unambiguously identify plastidic ACCase as the target of Tween-80 induced feedback inhibition.

[2] = tested on: genes encoding plastidic ACCase subunits; experiment: qPCR analysis of genes encoding plastidic ACCase subunits; type: cell-based, Brassica napus; conditions: 10 mM Tween-80, three hour treatment; mean of three repeats ± SE; 0 mM = 1
Procedure: RNA was isolated from cultured cells using Trizol Reagent (Invitrogen, Carlsbad, Calif., USA) and was treated with DNase. cDNA was synthesized from 1 μg of total RNA using the Bio-Rad (Hercules, Calif., USA) iScript cDNA synthesis kit. qPCR was performed with 1:50 of the cDNA product and SSO Fast EvaGreen supermix (Bio-Rad). Reference genes were ACT7 and UBC21 using primers as described previously (Chen et al. 2010 Anal Biochem, 405, 138-140). Primers for experimental genes were as follows: BC, biotin carboxylase (GenBank:A Y034410.1), F-[…] (SEQ ID No. 28) and R-[…] (SEQ ID No. 29); BCCP, biotin carboxyl carrier protein (GenBank: X90730.1), F-[…] (SEQ ID No. 30), R-[…] (SEQ ID No. 31); CT-α, carboxytransferase-α (GenBank GQ341624.1), F-[…] (SEQ ID No. 32), R-[…] (SEQ ID No. 33); CT-β, carboxytransferase-β (GenBank: Z50868.1), F-[…] (SEQ ID No. 34), R-[…] (SEQ ID No. 35). Relative expression level was calculated using REST software (Qiagen, Valencia, Calif., USA).
Gene expression analysis and enzyme assays were performed to better understand the apparent reduction in ACCase activity during Tween-80 feeding. Quantitative real-time PCR was used to measure the expression of genes encoding plastidic ACCase subunits. The specific genes selected for analysis were those originally identified as being embryo expressed in Brassica napus plants (Elborough et al. 1996, Biochemical Journal, 315, 103-112). […] Desalted extracts gave the same result. […] If dephosphorylation is involved in feedback, then treatment with phosphatase would be expected to reduce ACCase activity from inhibited cells to a lesser extent than from the control. If PII interaction is involved, then it is possible that incubation in the presence of 2-oxoglutarate would […] ACCase from a Tween-fed extract more than the control.

## Tween-80
[1]; 3 hours of 10 mM Tween-80 feeding
  reduction of incorporation of 14C-acetate into fatty acids: 40%
[1]; 3 hours of 10 mM Tween-80 feeding, compared to 14C-acetate labeled controls
  incorporation of 14C-malonate into 16 and 18 carbon fatty acids: not inhibited
[1]; Tween-80 feeding
  14C-acetate incorporation into sterols: unaffected
[1]; after removal of Tween-80 following 3 hour exposure to 10 mM
  reversibility of feedback inhibition after removal: completely reversible
[1]; cultures with 10 mM Tween-80
  haloxyfop-resistant 14C-acetate incorporation: reduced by about half
[1]; relative to a control sample without any Tweens, mean of three repeats ± SD
  Relative 14C-acetate incorporation (% control): 50.9 ± 7.0 % control
[1]; three hours after addition of 10 mM Tween-80
  reduction of rate of 14C-acetate incorporation into lipids: 40%
[2]
  Relative gene expression BC: 0.91 ± 0.17
  Relative gene expression BCCP: 1.32 ± 0.58
  Relative gene expression CT-α: 1.02 ± 0.33
  Relative gene expression CT-β: 1.18 ± 0.29
